Where two headings read alike, the source gives them in different places.
Legend:
IL-23, dendritic cells = experiment: IL-23 assay, human primary monocyte-derived dendritic cells, LPS stimulated, ELISA; assay type: cell-based; conditions: Dendritic cell
Description: (§1) IL-23 assays: THP1 cells or human primary monocyte-derived dendritic cells (DC) were primed overnight with IFNg. Following one hour preincubation with compound, cells were stimulated overnight with LPS. IL-23 released into the media was quantitated by ELISA.

TAK1 = biological target: T1, TAK1 (Homo sapiens, UniProt O43318); experiment: TAK1 biochemical assay, ADP-Glo kinase assay
T1 sequence (O43318 1-303 limits assumed): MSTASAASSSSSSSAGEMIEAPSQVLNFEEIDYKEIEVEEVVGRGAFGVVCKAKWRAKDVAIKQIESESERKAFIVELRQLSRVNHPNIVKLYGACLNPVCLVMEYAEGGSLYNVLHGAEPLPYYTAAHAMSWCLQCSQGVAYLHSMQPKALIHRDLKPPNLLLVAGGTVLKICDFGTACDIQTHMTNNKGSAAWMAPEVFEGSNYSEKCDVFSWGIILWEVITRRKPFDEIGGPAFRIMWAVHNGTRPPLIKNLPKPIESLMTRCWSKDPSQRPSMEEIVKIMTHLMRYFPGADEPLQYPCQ
Description: (§2) IRAK4 and TAK1 biochemical assays: kinase activity was measured by ADP-Glo kinase assay (Promega).

IRAK4 = biological target: T2, IRAK4 (Homo sapiens, UniProt Q9NWZ3); experiment: IRAK4 biochemical assay, ADP-Glo kinase assay; conditions: for Selectivity (TAK1/IRAK4): ratio of TAK1 and IRAK4 IC50
T2 sequence (Q9NWZ3 1-460): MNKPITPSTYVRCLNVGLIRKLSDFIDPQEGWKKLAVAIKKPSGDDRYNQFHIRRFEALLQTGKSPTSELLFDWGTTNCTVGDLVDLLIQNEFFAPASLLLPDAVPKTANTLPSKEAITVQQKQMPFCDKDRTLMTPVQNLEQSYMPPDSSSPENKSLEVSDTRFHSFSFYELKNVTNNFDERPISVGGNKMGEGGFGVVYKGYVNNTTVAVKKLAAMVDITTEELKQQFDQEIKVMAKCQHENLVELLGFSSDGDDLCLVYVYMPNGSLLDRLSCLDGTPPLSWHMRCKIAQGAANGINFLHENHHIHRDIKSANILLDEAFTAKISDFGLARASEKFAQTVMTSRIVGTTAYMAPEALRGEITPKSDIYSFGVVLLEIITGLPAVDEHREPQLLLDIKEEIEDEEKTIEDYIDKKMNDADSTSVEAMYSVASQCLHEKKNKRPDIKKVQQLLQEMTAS
Description: as §2

IL-23, THP1 cells = experiment: IL-23 assay, THP1 cells primed with IFNg, LPS stimulated, ELISA; assay type: cell-based; conditions: Homo sapiens, THP-1
Description: as §1

IL-8, HUVEC = experiment: IL-8 assay, HUVEC, ELISA; assay type: cell-based, human; conditions: for IC50: Homo sapiens
IL-6, HUVEC = experiment: IL-6 assay, HUVEC, ELISA; assay type: cell-based, human; conditions: for IC50: Homo sapiens
[1] = LPS stimulated, 10 pt, read-out: IL23-P19, ELISA, Dendritic, LPS, 10 pt
[2] = THP1 cells, IFNy primed, LPS stimulated, 10 pt, read-out: IL23-p19 ELISA, THP1-IFNy, LPS, 10 pt
[3] = read-out: IL23 (LPS induced) IC50
[4] = LPS, read-out: IL23 (Dentritic Cells, LPS) IC50
[5] = read-out: IL8 (HUVEC, IL-1β) IC50
[6] = read-out: IL8 (HUVEC, LPS) IC50
[7] = read-out: IL8 (HUVEC, TNFα) IC50
[8] = read-out: IL6 (HUVEC, IL-1β) IC50
[9] = read-out: IL6 (HUVEC, LPS) IC50
[10] = read-out: IL6 (HUVEC, TNFα) IC50
[11] = THP cells, LPS, read-out: IL23 (THP, LPS) IC50

SMILES	IC50 (IL-23, dendritic cells; [1])	IC50 (TAK1)	IC50 (IRAK4)	IC50 (IL-23, THP1 cells; [2])	IC50 (IL-23, THP1 cells; [3])	Selectivity (TAK1/IRAK4) (IRAK4)	IC50 (IL-23, dendritic cells; [4])	IC50 (IL-8, HUVEC; [5])	IC50 (IL-8, HUVEC; [6])	IC50 (IL-8, HUVEC; [7])	Selectivity IL8 (TNFα/IL-1β) (IL-8, HUVEC; ratio TNFα/IL-1β)	Selectivity IL8 (TNFα/LPS) (IL-8, HUVEC; ratio TNFα/LPS)	IC50 (IL-6, HUVEC; [8])	IC50 (IL-6, HUVEC; [9])	IC50 (IL-6, HUVEC; [10])	Selectivity IL6 (TNFα/IL-1β) (IL-6, HUVEC; ratio TNFα/IL-1β)	Selectivity IL6 (TNFα/LPS) (IL-6, HUVEC; ratio TNFα/LPS)	IC50 (IL-23, THP1 cells; [11])
NC(=O)[C@@H]1[C@H](Nc2nc(Nc3cccc(C(=O)N4CCCC4)c3)ncc2-c2ccoc2)[C@H]2C=C[C@@H]1C2 [Compound 7, (1S,2S,3R,4R)-3-((5-(furan-3-yl)-2-((3-(pyrrolidine-1-carbonyl)phenyl)amino)pyrimidin-4-yl)amino)bicyclo[2.2.1] hept-5-ene-2-carboxamide]	< 100 nM	11 nM	2 nM	< 100 nM	40 nM	–	–	–	–	–	–	–	–	–	–	–	–	–
NC(=O)[C@@H]1[C@H](Nc2nc(Nc3cccc(C(=O)N4CCCC4)c3)ncc2-c2ccccc2)[C@H]2C=C[C@@H]1C2 [Compound 8, (1S,2S,3R,4R)-3-((5-phenyl-2-((3 (pyrrolidine-1-carbonyl)phenyl)amino)pyrimidin-4-yl)amino)bicyclo[2.2.1] hept-5-ene-2-carboxamide]	< 1000 nM	166 nM	10 nM	< 250 nM	220 nM	–	–	–	–	–	–	–	–	–	–	–	–	–
NC(=O)[C@@H]1[C@H](Nc2nc(Nc3cccc(C(=O)N4CCCC4)c3)ncc2-c2ccncc2)[C@H]2C=C[C@@H]1C2 [Compound 9, (1S,2S,3R,4R)-3-((5-(pyridin-4-yl)-2-((3-(pyrrolidine-1-carbonyl)phenyl)amino)pyrimidin-4-yl)amino)bicyclo[2.2.1] hept-5-ene-2-carboxamide]	< 250 nM	24 nM	4 nM	< 250 nM	130 nM	7	–	–	–	–	–	–	–	–	–	–	–	–
NC(=O)[C@@H]1[C@H](Nc2nc(Nc3cccc(C(=O)N4CCCC4)c3)ncc2-c2cccc(F)c2)[C@H]2C=C[C@@H]1C2 [Compound 11, (1S,2S,3R,4R)-3-((5-(3-fluorophenyl)-2-((3-(pyrrolidine-1-carbonyl)phenyl)amino)pyrimidin-4-yl)amino)bicyclo[2.2.1] hept-5-ene-2-carboxamide]	< 100 nM	106 nM	6 nM	< 250 nM	130 nM	17	70 nM	310 nM	950 nM	6000 nM	18	6	140 nM	130 nM	1700 nM	12	13	130 nM
NC(=O)[C@@H]1[C@H](Nc2nc(Nc3cccc(C(=O)N4CCCC4)c3)ncc2-c2ccc(F)cc2)[C@H]2C=C[C@@H]1C2 [Compound 12, (1S,2S,3R,4R)-3-((5-(4-fluorophenyl)-2-((3 (pyrrolidine-1-carbonyl)phenyl)amino)pyrimidin-4-yl)amino)bicyclo[2.2.1] hept-5-ene-2-carboxamide]	> 1000 nM	670 nM	19 nM	< 1000 nM	460 nM	–	–	–	–	–	–	–	–	–	–	–	–	–
N#Cc1cccc(-c2cnc(Nc3cccc(C(=O)N4CCCC4)c3)nc2N[C@H]2[C@@H](C(N)=O)[C@@H]3C=C[C@H]2C3)c1 [Compound 13, (1S,2S,3R,4R)-3-((5-(3-cyanophenyl)-2-((3-(pyrrolidine-1-carbonyl)phenyl)amino)pyrimidin-4-yl)amino)bicyclo[2.2.1] hept-5-ene-2-carboxamide]	< 1000 nM	105 nM	13 nM	< 1000 nM	280 nM	–	–	–	–	–	–	–	–	–	–	–	–	–
N#Cc1ccc(-c2cnc(Nc3cccc(C(=O)N4CCCC4)c3)nc2N[C@H]2[C@@H](C(N)=O)[C@@H]3C=C[C@H]2C3)cc1 [Compound 14, (1S,2S,3R,4R)-3-((5-(4-cyanophenyl)-2-((3-(pyrrolidine-1-carbonyl)phenyl)amino)pyrimidin-4-yl)amino)bicyclo[2.2.1] hept-5-ene-2-carboxamide]	< 1000 nM	1600 nM	9 nM	< 250 nM	190 nM	–	–	–	–	–	–	–	–	–	–	–	–	–
NC(=O)[C@@H]1[C@H](Nc2nc(Nc3cccc(C(=O)N4CCCC4)c3)ncc2-c2ccnc(F)c2)[C@H]2C=C[C@@H]1C2 [Compound 16, (1S,2S,3R,4R)-3-((5-(2-fluoropyridin-4-yl)-2-((3-(pyrrolidine-1-carbonyl)phenyl)amino)pyrimidin-4-yl)amino)bicyclo[2.2.1] hept-5-ene-2-carboxamide]	< 250 nM	17 nM	3 nM	< 100 nM	100 nM	–	110 nM	250 nM	1000 nM	3000 nM	–	–	110 nM	120 nM	1200 nM	–	–	100 nM

— patent US11524955B2, “2,4-diamino-pyrimidine compounds and method for making and using the compounds” (Rigel Pharmaceuticals, Inc., priority 2016, dated 2022)
